In patent publication US20230072421A1, “TARGETED RADIOPHARMACEUTICALS FOR THE DIAGNOSIS AND TREATMENT OF PROSTATE CANCER” (Bayer AS, priority 2019, published 2023):

Tests used:
VCaP cells = experiment: Cell proliferation assay (CellTiter-Glo, 5-day exposure), VCaP; type: cell-based; conditions: 4000 cells/well, Th-227 labelled at 375 kBq/nmol, mean of 1 to 6 experiments
Procedure, shortened: (§1)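 Thorium-227-labelled PSMA small-molecule ligands were tested on prostate cancer lines seeded at 4000 cells/well (VCaP) or 1000 cells/well (22Rv1, C4-2, LNCaP) and incubated overnight at 37 °C, 5% CO2. Viability was read by CellTiter-Glo luminescence at treatment start (sister plates) and after 5-day compound exposure.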

C4-2 cells = experiment: Cell proliferation assay (CellTiter-Glo, 5-day exposure), C4-2; type: cell-based; conditions: C4-2, 1000 cells/well, Th-227 labelled at 375 kBq/nmol, mean of 1 to 6 experiments
Procedure, shortened: as §1

22Rv1 cells = experiment: Cell proliferation assay (CellTiter-Glo, 5-day exposure), 22Rv1; type: cell-based; conditions: 22Rv1, 1000 cells/well, Th-227 labelled at 375 kBq/nmol, mean of 1 to 6 experiments
Procedure, shortened: as §1

[1] = test system: LNCaP human prostate cancer cells; experiment: LNCaP xenograft efficacy study (T/C tumor area); type: in vivo, SCID mice; conditions: Example IV; day 36 after start of therapy; once 1 MBq/kg
Procedure: (§2) SCID mice were randomly assigned to experimental groups, ten animals per group (efficacy) or n=3-5 per time point of biodistribution study. At the initiation of the study, a testosterone pellet was subcutaneously transplanted, the animals were shaved, tattooed and each cage was labeled with the cage number, study number and number of animals per cage.
(§3) LNCaP human prostate cancer cells were cultured as described according to the supplier's protocols. Cells were harvested for transplantation in a subconfluent (70%) state. Animals were injected with 5×10^6 LNCaP cells suspended in 100% Matrigel subcutaneously into the flank of the mice.
Efficacy study: When tumors reached a predetermined size in mice of 35-50 mm^2 animals were randomized into treatment and control groups (n=10 animals/group) and treatment with the defined radioactive dose was started. The i.v. application volume was 100 μl/mice.
Tumor response was assessed by determination of the tumor area (product of the longest diameter and its perpendicular) using a caliper. The animal body weight was monitored as a measure for treatment-related toxicity. Measurement of tumor area and body weight was performed two to three times weekly.
Animals were sacrificed when showing signs of toxicity (>20% body weight loss) or when tumors reached a size of approximately 200 mm^2.
Tumor growth inhibition is presented as T/C ratio (Treatment/Control) calculated with tumor areas when the vehicle control group had to be closed.

[2] = Biodistribution study in LNCaP tumor-bearing mice (Th227 counted in organs); type: in vivo, SCID mice; conditions: 1500 kBq/kg
Procedure: as §2, §3
Biodistribution study: When tumors reached a predetermined size in mice of ˜50 mm^2 animals were randomized into groups (n=3 animals/time point) and the radioactive compound was once applied intravenously. The i.v. application volume was 100 μl/mice.
At the predetermined time point, n=3 animals were sacrificed, the organs removed, weight and measured in a Germanium detector to count the Th227 in the sample.

Cc1cc(C(=O)NCCN(CCCN(CCNC(=O)c2cc(C)n(CC(=O)O)c(=O)c2[O-])CCNC(=O)c2cc(C)n(CC(=O)NCC3CCC(C(=O)NC(Cc4cnc5ccccc5c4)C(=O)NCCCCC(NC(=O)NC(CCC(=O)O)C(=O)O)C(=O)O)CC3)c(=O)c2[O-])CCNC(=O)c2cc(C)n(CC(=O)NCC3CCC(C(=O)NC(Cc4cnc5ccccc5c4)C(=O)NCCCCC(NC(=O)NC(CCC(=O)O)C(=O)O)C(=O)O)CC3)c(=O)c2[O-])c([O-])c(=O)n1CC(=O)O.[227Th+4] (stereo not drawn) [Example 22-C dimer-227Th]
Proliferation assay on cancer cell lines by TTCs Default Pivot #3 IC50 [kBq/mL] VCap 4000cells 375kBq/nmol (mean) (VCaP cells): 3.65 kBq/mL
Proliferation assay on cancer cell lines by TTCs Default Pivot #3 IC50 [kBq/mL] C4-2 1000cells 375kBq/nmol (mean) (C4-2 cells): 2.56 kBq/mL
Proliferation assay on cancer cell lines by TTCs Default Pivot #3 IC50 [kBq/mL] 22Rv1 1000cells 375kBq/nmol (mean) (22Rv1 cells): 0.89 kBq/mL
T/Carea [1]: 0.67
Th-227 in Blood ([2]; 0.25 h): 3.35% ID Th-227/g organ
Th-227 in Liver ([2]; 0.25 h): 1.79% ID Th-227/g organ
Th-227 in Spleen ([2]; 0.25 h): 13.87% ID Th-227/g organ
Th-227 in Tumor ([2]; 0.25 h): 4.57% ID Th-227/g organ
Th-227 in bone ([2]; 0.25 h): 2.50% ID Th-227/g organ
Th-227 in brain ([2]; 0.25 h): 0.13% ID Th-227/g organ
Th-227 in kidney ([2]; 0.25 h): 61.44% ID Th-227/g organ
Th-227 in large intestine ([2]; 0.25 h): 0.87% ID Th-227/g organ
Th-227 in lung ([2]; 0.25 h): 3.56% ID Th-227/g organ
Th-227 in muscle ([2]; 0.25 h): 1.27% ID Th-227/g organ
Th-227 in prostate ([2]; 0.25 h): 5.47% ID Th-227/g organ
Th-227 in salivary glands ([2]; 0.25 h): 2.63% ID Th-227/g organ
Th-227 in small intestine ([2]; 0.25 h): 1.64% ID Th-227/g organ
Th-227 in Blood ([2]; 1 hr): 0.53% ID Th-227/g organ
Th-227 in Liver ([2]; 1 hr): 0.41% ID Th-227/g organ
Th-227 in Spleen ([2]; 1 hr): 8.93% ID Th-227/g organ
Th-227 in Tumor ([2]; 1 hr): 4.49% ID Th-227/g organ
Th-227 in bone ([2]; 1 hr): 1.12% ID Th-227/g organ
Th-227 in brain ([2]; 1 hr): 0.01% ID Th-227/g organ
Th-227 in kidney ([2]; 1 hr): 96.67% ID Th-227/g organ
Th-227 in large intestine ([2]; 1 hr): 0.23% ID Th-227/g organ
Th-227 in lung ([2]; 1 hr): 1.30% ID Th-227/g organ
Th-227 in muscle ([2]; 1 hr): 0.28% ID Th-227/g organ
Th-227 in prostate ([2]; 1 hr): 1.66% ID Th-227/g organ
Th-227 in salivary glands ([2]; 1 hr): 0.69% ID Th-227/g organ
Th-227 in small intestine ([2]; 1 hr): 0.38% ID Th-227/g organ
Th-227 in Blood ([2]; 4 hr): 0.10% ID Th-227/g organ
Th-227 in Liver ([2]; 4 hr): 0.60% ID Th-227/g organ
Th-227 in Spleen ([2]; 4 hr): 1.68% ID Th-227/g organ
Th-227 in Tumor ([2]; 4 hr): 2.18% ID Th-227/g organ
Th-227 in bone ([2]; 4 hr): 0.74% ID Th-227/g organ
Th-227 in brain ([2]; 4 hr): 0.00% ID Th-227/g organ
Th-227 in kidney ([2]; 4 hr): 45.26% ID Th-227/g organ
Th-227 in large intestine ([2]; 4 hr): 0.29% ID Th-227/g organ
Th-227 in lung ([2]; 4 hr): 0.38% ID Th-227/g organ
Th-227 in muscle ([2]; 4 hr): 0.05% ID Th-227/g organ
Th-227 in prostate ([2]; 4 hr): 0.20% ID Th-227/g organ
Th-227 in salivary glands ([2]; 4 hr): 0.36% ID Th-227/g organ
Th-227 in small intestine ([2]; 4 hr): 0.21% ID Th-227/g organ
Th-227 in Blood ([2]; 24 h): 0.02% ID Th-227/g organ
Th-227 in Liver ([2]; 24 h): 078% ID Th-227/g organ
Th-227 in Spleen ([2]; 24 h): 1.96% ID Th-227/g organ
Th-227 in Tumor ([2]; 24 h): 2.23% ID Th-227/g organ
Th-227 in bone ([2]; 24 h): 0.46% ID Th-227/g organ
Th-227 in brain ([2]; 24 h): 0.00% ID Th-227/g organ
Th-227 in kidney ([2]; 24 h): 11.35% ID Th-227/g organ
Th-227 in large intestine ([2]; 24 h): 0.21% ID Th-227/g organ
Th-227 in lung ([2]; 24 h): 0.25% ID Th-227/g organ
Th-227 in muscle ([2]; 24 h): 0.00% ID Th-227/g organ
Th-227 in prostate ([2]; 24 h): 0.02% ID Th-227/g organ
Th-227 in salivary glands ([2]; 24 h): 0.18% ID Th-227/g organ
Th-227 in small intestine ([2]; 24 h): 0.10% ID Th-227/g organ
Th-227 in Blood ([2]; 96 h): 0.00% ID Th-227/g organ
Th-227 in Liver ([2]; 96 h): 0.31% ID Th-227/g organ
Th-227 in Spleen ([2]; 96 h): 0.43% ID Th-227/g organ
Th-227 in Tumor ([2]; 96 h): 0.66% ID Th-227/g organ
Th-227 in bone ([2]; 96 h): 0.83% ID Th-227/g organ
Th-227 in brain ([2]; 96 h): 0.00% ID Th-227/g organ
Th-227 in kidney ([2]; 96 h): 2.18% ID Th-227/g organ
Th-227 in large intestine ([2]; 96 h): 0.04% ID Th-227/g organ
Th-227 in lung ([2]; 96 h): 0.16% ID Th-227/g organ
Th-227 in muscle ([2]; 96 h): 0.00% ID Th-227/g organ
Th-227 in prostate ([2]; 96 h): 0.00% ID Th-227/g organ
Th-227 in salivary glands ([2]; 96 h): 0.19% ID Th-227/g organ
Th-227 in small intestine ([2]; 96 h): 0.04% ID Th-227/g organ
